Reference: patent publication US7947736B2, “Oligomeric compounds” (BTG International Limited, priority 2004, dated 2011)

Columns and labels:
[1] = Ketogenic activity after oral administration: plasma β-hydroxybutyrate in rats (Ranbut assay); settings: 300 mg/kg po; for maximum increase of plasma concentration of β-hydroxybutyrate: male Sprague-Dawley rats, versus baseline (T=0)
Method: Male Sprague-Dawley rats (weight range 200-250 g; Clarles River, Margate, Kent) were used. The rats were group-housed in polypropylene cages at a temperature of 21±4° C., 55±20% humidity on a standard 12 hour light/dark cycle (lights on at 6.00 am). […] Animals were acclimatized to these conditions for at least one week before experimentation.
The sodium salt of D-β-hydroxybutyrate monomer (KTX 0101) was used as a comparator for assessing the bioavailability of the oligomeric compounds described here. […] Control animals received the appropriate vehicle (deionized water at 1 ml/kg) via the same route.
In Protocol A, blood (approx […]) was collected by cardiac puncture at 15, 30 and 60 minutes after dosing. In Protocol B, blood (approx 5 ml) was collected by cardiac puncture at 30, 120 and 240 minutes after dosing. In Protocol E, blood (approx 5 ml) was collected by cardiac puncture at 120 and 240 minutes after dosing. Animals were killed by CO2 asphyxiation and blood collected by cardiac puncture. Blood was placed into EDTA-coated plasma collection tubes (Sarstedt 5 ml K2E tubes) and kept on ice prior to centrifugation. Tubes were centrifuged in an Eppendorf 570R centrifuge at 4° C. for 5 minutes at 2500 rpm (1000 g). Plasma samples were initially frozen on dry ice and transferred to a −75° C. freezer until required for analysis.
Commercial clinical assay kits (Ranbut) for the determination of D-β-hydroxybutyrate were obtained from Randox Laboratories (Antrim, UK). The kit quantified NADH via the activity of β-hydroxybutyrate dehydrogenase measured as an increase in OD340 nm. An alkaline pH is necessary to drive the reaction equilibrium towards the production of NADH and acetoacetate.
This spectrophotometric assay was modified for application to a 96-well microplate format. The reaction rate was then determined from the increase in OD340 nm over a 1 minute time-course, after allowing a necessary period for the reaction rate to settle.

[2] = Ketogenic activity after intravenous injection: plasma β-hydroxybutyrate in rats (Ranbut assay); format: in vivo, rat; settings: 300 mg/kg iv; for plasma concentration of β-hydroxybutyrate (increase to): 15 min after injection
Method: Male Sprague-Dawley rats (weight range 200-250 g) were obtained from Charles River, Margate, Kent.
The compounds were infused via the tail vein at 300 mg/kg (1 ml/kg) over a period of 1 to 2 min.
Animals were killed 15 min later by CO2 asphyxiation and blood was collected by cardiac puncture.

[3] = Dissolution in deionized water / water solubility; format: physicochemical; settings: dissolved at 300 mg/ml in deionized water (KTX 0202: 300 mg/kg [sic])

| Compound | maximum increase of plasma concentration of β-hydroxybutyrate [1] | biological half-life relative to KTX 0101 ([1]; rats) | magnitude of increase in plasma β-hydroxybutyrate compared with KTX 0101 ([1]; rats) | oral bioavailability ([1]; rats) | time at which plasma β-hydroxybutyrate was still significantly elevated ([1]; rats) | time at which the maximum increase of plasma β-hydroxybutyrate was observed ([1]; rats) | time by which plasma β-hydroxybutyrate returned to control values ([1]; rats) | bioavailability by the intravenous route [2] | increase of plasma β-hydroxybutyrate at 15 min, more than KTX 0101 ([2]; 15 min) | plasma concentration of β-hydroxybutyrate (increase to) [2] | appearance of the solution [3] | pH of the solution [3] | time until which plasma β-hydroxybutyrate plateaued at the maximum level ([1]; rats) |
| --- | --- | --- | --- | --- | --- | --- | --- | --- | --- | --- | --- | --- | --- |
| CC(O)CCOC(=O)C[C@@H](C)OC(=O)C[C@@H](C)OC(=O)C[C@@H](C)O (stereo partly drawn) [KTX 0202, 1-(tri(R)-3-hydroxybutyryl-butane-1,3-diol) ester] | 0.4 mM | improved biological half-life relative to KTX 0101 | at least as great as those produced by KTX 0101 | orally bioavailable | 2 h | 30 min | ≤ 4 h | bioavailable when injected via the intravenous route | 60% | 1.7 mM | slightly opaque solution | 6.0 |  |
| 1-3 butandiol, di-(tri(R)-3-hydroxybutyrate)ester [KTX 0203] | 0.4 mM |  | at least as great as those produced by KTX 0101 |  |  |  |  |  |  |  |  |  |  |
| C[C@@H]1CC(=O)O[C@H](C)CC(=O)O[C@H](C)CC(=O)O1 [(R)-3-β-hydroxybutyrate triolide, reference compound] | 0.5 mM |  | at least as great as that evoked by oral administration of the equivalent dose of KTX 0101 |  |  |  |  |  |  |  |  |  |  |
| C[C@@H](O)CC(=O)[O-].[Na+] [KTX 0101, sodium D-β-hydroxybutyrate, reference compound] | 0.4 mM |  |  |  | 1 h | 15 min | ≤ 2 h |  |  | 1.0 mM | clear solution | 7.0 | 30 min |
